Measurements published in patent US9549911B2, “Ginger metabolites and uses thereof” (North Carolina A&T State University, priority 2012, dated 2017).

Columns and labels:
[1] = system: human lung fibroblast cells IMR-90; assay: in vitro; type: cell-based
Description: (§1) Growth inhibition of human cancer and normal cells. Cell growth inhibition was determined by a MTT colorimetric assay. Human colon cancer cells HCT-116, human lung cancer cells H-1299, human colon fibroblast cells CCD-18Co, and human lung fibroblast cells IMR-90 were plated in 96-well microtiter plates with 3000 cells/well and allowed to attach for 24 h at 37° C. […] After the cells were cultured for 48 h, the medium was aspirated and cells were treated with 200 μL fresh medium containing 2.41 mmol/L MTT. […] The reading reflected the number of viable cells and was expressed as a percentage of viable cells in the control. Both HCT-116 and H-1299 cells were cultured in McCoy's 5A medium. CCD-18Co and IMR-90 cells were cultured in Eagle's modified essential medium (EMEM). All of the above media were supplemented with 10% fetal bovine serum, 1% penicillin/streptomycin, and 1% glutamine, and the cells were kept in a 37° C. incubator with 95% humidity and 5% CO2.

HCT-116 cells [2] = assay: Western blot analysis of apoptosis markers and p53 (Part 5); type: cell-based, human; conditions: for p53 expression (Western blot): HCT-116 (p53 wild-type), 24 hours, M2, 6S 10, 20 or 40 μM, 8S, M2′, 10S, M2″ 20 μM
Description: (§2) Cell lysates were prepared in ice-cold RIPA lysis buffer [25 mM Tris-HCl (pH 7.6), 150 mM NaCl, 1% NP-40, 1% sodium deoxycholate, 0.1% SDS, Thermo Fisher Scientific] supplemented with a protease inhibitor cocktail (AEBSF, aprotinin, bestatin, E-64, leupeptin and pepstatin A in DMSO with EDTA, Thermo Fisher Scientific). Protein content was measured by a Pierce BCA Assay Kit (Thermo Fisher Scientific). Protein contents of cell lysates (30 μg protein/lane) were resolved by SDS-PAGE. Proteins were then electro-transferred onto PVDF membranes and blots were blocked for one hour at room temperature in 1×TBS with 1% Casein (Bio-Rad Laboratories, Berkeley, Calif.). Blots were then incubated overnight at 4° C. with the desired primary antibody diluted in TBS with 0.5% Tween-20. Blots were then washed with TBS-Tween 20 and probed for 1 hour with the appropriate secondary antibody (1:1000). Protein bands were visualized with chemiluminescence using West Femto maximum detection substrate (Thermo Fisher Scientific). To confirm equal protein loading in each lane, immunoblots were stripped and re-probed for β-actin. Protein fold-induction was calculated by normalizing the intensity of the band of interest to β-actin first, and then to DMSO control lanes.

HT-29 cells = assay: as above; type: cell-based, human; conditions: for p53 expression (Western blot): HT-29 (p53 mutant), 24 hours, M2, 6S 10, 20 or 40 μM, 8S, M2′, 10S, M2″ 20 μM
Description: as §2

[3] = system: human colon cancer cells HCT-116; assay: MTT growth inhibition of human cancer and normal cells (Part 2); type: cell-based; conditions: HCT-116, 48 h, 0 to 80 μM
Description: as §1

[4] = system: human lung cancer cells H-1299; assay: as above; type: cell-based; conditions: H-1299, 48 h, 0 to 80 μM
Description: as §1

HCT-116 cells [5] = assay: TUNEL apoptosis assay (Part 2); type: cell-based, human; conditions: HCT-116, 20 or 40 μM
Description: HCT-116 and H1299 cells were seeded in 6-well plates at 1×10^5 cells/well and incubated at 37° C. in 5% CO2 incubator. After 24 hours, fresh media supplemented with DMSO (control), [6]-shogaol, M2, M6, or M13 metabolites (20 μM or 40 μM) were added to the wells. After 6 or 24 hours incubation at 37° C. in 5% CO2 incubator, cells were washed and pre-treated for 15 min at room temperature with a solution of 20 μg/ml proteinase K. Cells were then washed twice with phosphate buffer saline pH 7.4 (PBS) and fixed for 10 min at room temperature using 10% neutral formaldehyde solution. After 2 washes in ddH2O, cells were resuspended in 100 μL ddH2O and applied on silanized microscope slides. Slides were incubated overnight at 37° C., and washed twice with PBS. TUNEL assay was then carried out according to the manufacturer's protocol. Cells were observed under 400× power using a Zeiss microscope A1 (Thornwood, N.Y.). 10 fields per slide were evaluated, and TUNEL+ cells (with brown coloration in the nucleus) were expressed as a percentage of the total number of cells contained in a field.

Structure (SMILES)	IC50 [1]	p53 expression (Western blot) (HCT-116 cells [2])	Bcl-2 levels (Western blot, vs DMSO) (HCT-116 cells [2]; HCT-116, 40 μM)	PUMA induction (Western blot, vs DMSO) (HCT-116 cells [2]; HCT-116, 40 μM)	XIAP expression (Western blot, vs DMSO) (HCT-116 cells [2]; HCT-116, 40 μM)	cleaved caspase 9 (Western blot, vs DMSO) (HCT-116 cells [2]; HCT-116, 40 μM)	cytochrome c release (Western blot, vs DMSO) (HCT-116 cells [2]; HCT-116, 40 μM)	p53 expression (Western blot) (HT-29 cells)	Bcl-2 levels (Western blot, vs DMSO) (HT-29 cells; HT-29, 40 μM)	PUMA induction (Western blot, vs DMSO) (HT-29 cells; HT-29, 40 μM)	XIAP expression (Western blot, vs DMSO) (HT-29 cells; HT-29, 40 μM)	cleaved caspase 9 (Western blot, vs DMSO) (HT-29 cells; HT-29, 40 μM)	cytochrome c release (Western blot, vs DMSO) (HT-29 cells; HT-29, 40 μM)	IC50 [3]	IC50 [4]	induction of apoptosis (TUNEL) versus DMSO (HCT-116 cells [5]; 6 hours)	induction of apoptosis (TUNEL) versus DMSO (HCT-116 cells [5]; 24 hours)
CCCCCC(CC(=O)CCc1ccc(O)c(OC)c1)SC[C@H](N)C(=O)O (some centres unmarked) [M2, 5-cysteinyl-[6]-shogaol]	98.3 µM	dose-dependent up-regulation of p53	undetectable	~17 fold	undetectable	~4.6 fold	~2.2 fold	dose-dependent up-regulation of p53	~0.1 fold	~17 fold	~0.3 fold	~4.6 fold	~2.2 fold	24.4 µM	25.8 µM	higher levels of apoptosis	Apoptosis was observed
CCCCC/C=C/C(=O)CCc1ccc(O)c(OC)c1 [[6]-shogaol, reference compound]	36.6 µM	dose-dependent up-regulation of p53						dose-dependent up-regulation of p53						18.2 µM	17.9 µM	higher levels of apoptosis	
